Laboratory results published in patent US20150140089A1 (MetronomX, priority 2012, published 2015).
Several values for one entry are separate records, joined by “and”; a condition that tells them apart may be missing. Equal entries are not always repeated. Where two headings read alike, the source gives them in different places.

Tests used:
[1] = In vitro release (dissolution), USP apparatus II, 5% SDS in 0.1N HCl; type: physicochemical; conditions: 0.1N HCl with 5% SDS; in 24 hr
Protocol: (§1) At specified time intervals (0.5, 1, 2, 4, 8, 10, and 24 h), 2 ml of sample was collected from each basket and replaced with the same volume of buffer.

[2] = In vitro release (dissolution) using 2% w/v SDS in deionized water; type: physicochemical
Protocol: as §1
Dissolution of each formulation was performed in duplicate.

[3] = 2% w/v SDS in water
[4] = blood level of active compound; cited from earlier work

Structure (SMILES): CC1CS(=O)(=O)CCN1/N=C/c1ccc([N+](=O)[O-])o1 (stereo not drawn) [Nifurtimox, 3-methyl-4-(5′-nitrofurfurylidene-amino)-tetrahydro-4H-1,4-thiazine-1,1-dioxide]
- Nifurtimox degradation in dissolution samples [1]: about 25%
- instability of Nifurtimox during dissolution (in words) [2]: no significant instability
- Estimated Amount of Nifurtimox ([3]; 25 °C, 0 hr): 344.22 µg/mL
- Estimated Amount of Nifurtimox ([3]; 25 °C, 4 hr): 339.96 µg/mL
- Estimated Amount of Nifurtimox ([3]; 25 °C, 8 hr): 345.38 µg/mL
- Estimated Amount of Nifurtimox ([3]; 25 °C, 12 hr): 346.21 µg/mL
- Estimated Amount of Nifurtimox ([3]; 25 °C, 16 hr): 346.94 µg/mL
- Estimated Amount of Nifurtimox ([3]; 25 °C, 20 hr): 344.92 µg/mL
- Estimated Amount of Nifurtimox ([3]; 25 °C, 24 hr): 341.80 µg/mL
- Estimated Amount of Nifurtimox ([3]; 37 °C, 1 hr): 338.78 µg/mL
- Estimated Amount of Nifurtimox ([3]; 37 °C, 2 hr): 339.74 µg/mL
- Estimated Amount of Nifurtimox ([3]; 37 °C, 3 hr): 338.78 µg/mL
- Estimated Amount of Nifurtimox ([3]; 37 °C, 24 hr): 343.76 µg/mL and 339.56 µg/mL
- half-life [4]: 2.95 ± 1.19 h
- time to peak [4]: 1 to 2 h
